Assay results: patent US10118926B2, “Tricyclic quinoline and quinoxaline derivatives” (AbbVie Deutschland GmbH & Co. KG, priority 2012, dated 2018)
pEC50: −log10 of the molar value.

Target: T1, 5-HT2C receptor (Homo sapiens, UniProt P28335)
T1 construct: β-galactosidase enzyme-complementation fragment (ProLink-type donor); host or cells: U2OS
Experiment: Functional activity: beta-arrestin2 recruitment to the 5-HT2C receptor in U2OS_HTR2C_β-Arrestin cells (DiscoverX)
Type: cell-based
Conditions: for pEC50: U2OS_HTR2C_β-Arrestin cells, 1.5 h incubation, chemiluminescent β-galactosidase complementation readout, read-out: Potency (EC50) in functional assay; for Emax: relative efficacy: response as percentage of response to 10 μM 5-HT or maximal effect induced by 5-HT (defined as 100%)
Description: The functional activity of compounds of formula I was assayed by incubation with U2OS_HTR2C_β-Arrestin cells (DiscoverX, 93-0289C3) to induce beta-arrestin2 recruitment to the 5-HT2C receptor. The agonist-induced recruitment and proximity of the receptor and beta-arrestin2 leads to complementation and formation of active β-galactosidase. The enzyme complementation results in enzyme activity, which is measured following the termination of the agonist incubation using DiscoveRx's detection reagent, which contains a chemiluminescent substrate which produces a high intensity signal. Cells were plated and a medium-change to a 1% serum containing medium was performed 24 h later. The next day, test compounds were added and incubated for 1.5 h before addition of detection reagent.
The response produced was measured and compared with the response produced by 10 [mu]M 5-HT or the maximal effect induced by 5-HT (defined as 100%) to which it was expressed as a percentage response (relative efficacy). Dose response curves were constructed using Graphpad Prism (Graph Software Inc.) or using in house adapted software using a 4 parameter dose response model with variable slope (fit=(Bottom+(Top−Bottom)/(1+10^((Log EC50−x)*HillSlope))res=(y−fit)). Results are compiled in the table below.

T1 sequence (P28335 33-458): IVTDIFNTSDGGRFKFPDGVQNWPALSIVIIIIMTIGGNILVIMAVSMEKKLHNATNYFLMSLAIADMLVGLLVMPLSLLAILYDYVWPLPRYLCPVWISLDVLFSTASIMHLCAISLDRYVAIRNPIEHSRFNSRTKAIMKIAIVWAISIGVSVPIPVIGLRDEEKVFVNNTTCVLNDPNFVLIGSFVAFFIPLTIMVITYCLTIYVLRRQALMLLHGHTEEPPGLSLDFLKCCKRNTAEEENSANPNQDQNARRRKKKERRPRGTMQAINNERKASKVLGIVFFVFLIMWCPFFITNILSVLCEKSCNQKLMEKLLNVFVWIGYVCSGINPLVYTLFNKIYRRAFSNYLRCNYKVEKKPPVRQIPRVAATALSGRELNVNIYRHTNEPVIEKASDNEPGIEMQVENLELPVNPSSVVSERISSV
T1 sequence (P32121 whole entry partner, the tested form may be a part): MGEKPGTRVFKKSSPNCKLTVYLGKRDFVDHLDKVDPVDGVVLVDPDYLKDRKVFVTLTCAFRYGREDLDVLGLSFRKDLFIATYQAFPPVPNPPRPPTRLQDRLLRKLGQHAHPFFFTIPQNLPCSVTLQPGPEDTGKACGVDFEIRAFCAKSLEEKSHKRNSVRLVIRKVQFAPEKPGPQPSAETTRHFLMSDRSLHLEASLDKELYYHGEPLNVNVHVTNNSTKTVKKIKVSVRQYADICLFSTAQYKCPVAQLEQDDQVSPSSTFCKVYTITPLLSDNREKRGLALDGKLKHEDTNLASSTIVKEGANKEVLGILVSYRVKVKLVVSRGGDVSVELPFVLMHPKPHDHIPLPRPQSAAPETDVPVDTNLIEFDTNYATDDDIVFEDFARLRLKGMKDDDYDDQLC

Row | SMILES | pEC50 | Emax [%]
1 | CCCN1CCN2CCNCc3cccc1c32 [Example 70, 1-Propyl-2,3,5,6,7,8-hexahydro-1H-[1,4]diazepino[1,7,6-de]quinoxaline] | 6.70 to 7.70 | 63
2 | Cc1cc2c3c(c1)C1(CCC1)CCN3CCNC2 [Example 76, 10-Methyl-1,2,3,4,6,7-hexahydrospiro[[1,4]diazepino[6,7,1-ij]quinoline-8,1′-cyclobutane], trifluoroacetic acid] | > 7.70 | 98
